Each structure is given as a SMILES string. Structures can show the parent of a compound that is named as a salt.

The experiment concerns the target T1, human IKK-β (Homo sapiens, UniProt O14920).
T1 construct: A cDNA fragment encoding human IKK-β open reading frame was generated by PCR; His tag (from pcDNA3.1/His C); made in house; host or cells: Sf21 insect cells (baculovirus); substrate made in E. coli
T1 sequence (O14920 1-756): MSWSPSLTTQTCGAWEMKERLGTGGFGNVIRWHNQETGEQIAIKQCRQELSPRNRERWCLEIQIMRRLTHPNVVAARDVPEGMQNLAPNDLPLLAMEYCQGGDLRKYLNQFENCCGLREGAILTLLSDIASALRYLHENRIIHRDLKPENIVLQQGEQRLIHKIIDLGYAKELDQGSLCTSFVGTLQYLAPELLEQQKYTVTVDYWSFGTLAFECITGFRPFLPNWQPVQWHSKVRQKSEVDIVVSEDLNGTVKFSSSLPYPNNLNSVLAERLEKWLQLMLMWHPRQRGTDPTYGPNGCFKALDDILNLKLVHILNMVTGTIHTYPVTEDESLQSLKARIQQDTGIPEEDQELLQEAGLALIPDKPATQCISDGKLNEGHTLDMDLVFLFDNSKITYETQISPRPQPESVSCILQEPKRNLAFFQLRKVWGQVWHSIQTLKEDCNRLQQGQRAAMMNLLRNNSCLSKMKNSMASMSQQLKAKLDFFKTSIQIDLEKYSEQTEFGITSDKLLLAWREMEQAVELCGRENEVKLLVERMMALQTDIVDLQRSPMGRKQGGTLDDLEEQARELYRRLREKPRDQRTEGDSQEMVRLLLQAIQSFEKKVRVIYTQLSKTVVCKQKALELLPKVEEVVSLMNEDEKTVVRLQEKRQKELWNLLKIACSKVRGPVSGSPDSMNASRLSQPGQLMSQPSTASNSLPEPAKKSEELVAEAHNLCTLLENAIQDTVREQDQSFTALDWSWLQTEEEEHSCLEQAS
Nature of the experiment: IKK-β kinase inhibitory assay. The class given is biochemical. Conditions: compounds as yielded by solid phase synthesis, purity about 40 to 90%, read-out: In vitro activity grade (In vitro IC50). In short, it runs like this: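 His-tagged human IKK-β from baculovirus-infected Sf21 cells (0.6 μg/ml final) phosphorylates biotinylated GST-IκBα(1-54) (0.2 μM) in Tris-HCl pH 7.6 buffer with MgCl2. ATP with [γ-33P]ATP added, then 2 h at room temperature. Biotinylated substrate captured on streptavidin plates; bound radioactivity counted by scintillation.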
As for `N#Cc1c(C2CCCNC2)cc(-c2c(O)cccc2OCc2cccc(Br)c2)nc1N` (stereo not drawn) [Example 2-11], the IC50 (as a rule, the midpoint of a concentration-inhibition curve) is below 500 nM.

On to `N#Cc1c(CCN)cc(-c2ccccc2O)nc1N` [Example 1-37], for which the half-inhibitory concentration (IC50) is below 500 nM.

Turning to `CCc1cc(-c2ccccc2O)nc(N)c1C#N` [Example 1-39], the IC50 fell in the range of 2000 to 10000 nM.

For `N#Cc1c([C@@H](N)CCc2ccccc2)cc(-c2ccccc2O)nc1N` [Example 1-29], the IC50 lay in the range of 500 to 2000 nM.

Regarding `N#Cc1c(C2CCCNC2)cc(-c2c(O)cccc2OCc2cccc(Cl)c2)nc1N` (stereo not drawn) [Example 2-18], the concentration for half-maximal inhibition (IC50) was below 500 nM.

In the case of `CCCCCCOc1cccc(O)c1-c1cc(C2CCNCC2)c(C#N)c(N)n1` [Example 2-76], the IC50 was below 500 nM.

Turning to `N#Cc1c(C2CCCNC2)cc(-c2cccc(F)c2O)nc1N` (stereo not drawn) [Example 1-19], the 50% inhibitory concentration (IC50) is below 500 nM.

Regarding `Cc1ccc(COc2cccc(O)c2-c2cc(C3CCCNC3)c(C#N)c(N)n2)cc1` (stereo not drawn) [Example 2-08], the concentration for half-maximal inhibition (IC50) is below 500 nM.

Turning to `N#Cc1c([C@H](Cc2ccccc2)NC(=O)CCN2CCCCC2)cc(-c2ccccc2O)nc1N` [Example 1-40], the 50% inhibitory concentration (IC50) lay within 500 to 2000 nM.

As for `N#Cc1c(CCO)cc(-c2ccccc2O)nc1N` [Example 1-44], the IC50 is 500 to 2000 nM.

On to `N#Cc1c(C2CCCNC2)cc(-c2c(O)cccc2OCCN2CCCC2)nc1N` (stereo not drawn) [Example 2-87], for which the IC50 fell in the range of 2000 to 10000 nM.

For `N#Cc1c(C2CCCNC2)cc(-c2c(O)cccc2OCCN2CCOCC2)nc1N` (stereo not drawn) [Example 2-84], the IC50 is below 500 nM.

Consider `N#Cc1c(C2CCCNC2)cc(-c2c(O)cccc2OCc2ccccc2Cl)nc1N` (stereo not drawn) [Example 2-17], for which the 50% inhibitory concentration (IC50) was below 500 nM.

As to `N#Cc1c(C2CCCNC2)cc(-c2c(O)cccc2OCCN2CCCCC2)nc1N` (stereo not drawn) [Example 2-83], the IC50 was in the range of 500 to 2000 nM.

`N#Cc1c(C2CCC(C(=O)O)CC2)cc(-c2ccccc2O)nc1N` (stereo not drawn) [Example 1-38]: the IC50 was below 500 nM.

On to `CCCCCCCOc1cccc(O)c1-c1cc(C2CCCNC2)c(C#N)c(N)n1` (stereo not drawn) [Example 2-64], for which the IC50 is below 500 nM.

As to `NC(=O)C1Cc2c(C3CCNCC3)cc(-c3c(O)cccc3OCC3CC3)nc2NC1=O` (stereo not drawn) [Example 26-2, 7-[2-(cyclopropylmethoxy)-6-hydroxyphenyl]-2-oxo-5-(4-piperidinyl)-1,2,3,4-tetrahydro-1,8-naphthyridine-3-carboxamide hydrochloride], the IC50 is below 500 nM.

With `N#Cc1c(C2CCCNC2)cc(-c2c(O)cccc2OCc2ccc([N+](=O)[O-])cc2)nc1N` (stereo not drawn) [Example 2-14], the IC50 is below 500 nM.

Take `N#Cc1ccc(COc2cccc(O)c2-c2cc(C3CCCNC3)c(C#N)c(N)n2)cc1` (stereo not drawn) [Example 2-16]: the IC50 is below 500 nM.

Consider `CS(=O)(=O)N1CCCC(c2cc(-c3ccccc3O)nc(N)c2C#N)C1` (stereo not drawn) [Example 1-42], for which the IC50 was in the range of 2000 to 10000 nM.

As for `N#Cc1c(C2CCCNC2)cc(-c2c(O)cccc2OCC2CC2)nc1N` (stereo not drawn) [Example 2-65], the IC50 was below 500 nM.

Take `CS(=O)(=O)N1Cc2c(C3CCCNC3)cc(-c3c(O)cccc3OCC3CC3)nc2NC1=O` (stereo not drawn) [Example 24-4, 7-[2-(cyclopropylmethoxy)-6-hydroxyphenyl]-3-(methylsulfonyl)-5-(3-piperidinyl)-3,4-dihydropyrido[2,3-d]pyrimidin-2(1H)-one hydrochloride]: the IC50 was below 500 nM.

As for `N#Cc1c(C2CCCNC2)cc(-c2c(O)cccc2OCc2c(Cl)cccc2Cl)nc1N` (stereo not drawn) [Example 2-20], the IC50 is below 500 nM.

As for `CC(C)[C@H](N)c1cc(-c2ccccc2O)nc(N)c1C#N` [Example 1-33], the IC50 is below 500 nM.

For `N#Cc1c(C2CCCNC2)cc(-c2c(O)cccc2OCC2CCCO2)nc1N` (stereo not drawn) [Example 2-81], the IC50 is below 500 nM.

On to `N#Cc1c([C@@H]2CCCN2)cc(-c2ccccc2O)nc1N` [Example 1-31], for which the IC50 was 500 to 2000 nM.

Regarding `CC(C)(C)C(=O)COc1cccc(O)c1-c1cc(C2CCNCC2)c(C#N)c(N)n1` [Example 2-78], the IC50 is below 500 nM.

On to `CCOC(=O)c1cc2c(C3CCCNC3)cc(-c3ccccc3O)nc2[nH]c1=O` (stereo not drawn) [Example 25-1, ethyl 7-(2-hydroxyphenyl)-2-oxo-5-(3-piperidinyl)-1,2-dihydro-1,8-naphthyridine-3-carboxylate hydrochloride], for which the IC50 was below 500 nM.

As to `Cc1cccc(-c2cc(C3CCCNC3)c(C#N)c(N)n2)c1O` (stereo not drawn) [Example 1-17], the IC50 was 500 to 2000 nM.

As to `N#Cc1c(CC(N)c2ccccc2)cc(-c2ccccc2O)nc1N` (stereo not drawn) [Example 1-35], the IC50 is below 500 nM.

As for `Cc1cccc(O)c1-c1cc(C2CCCNC2)c(C#N)c(N)n1` (stereo not drawn) [Example 1-21], the IC50 is 2000 to 10000 nM.

Turning to `CCCC[C@H](N)c1cc(-c2ccccc2O)nc(N)c1C#N` [Example 1-28], the IC50 was below 500 nM.

On to `N#Cc1c(C2CCNCC2)cc(-c2c(O)cccc2OCCC2CCCCC2)nc1N` [Example 2-70], for which the IC50 was below 500 nM.

With `CC(C)CCCOc1cccc(O)c1-c1cc(C2CCNCC2)c(C#N)c(N)n1` [Example 2-66], the IC50 was below 500 nM.

As for `N#Cc1c(C2CCCNC2)cc(-c2c(O)cccc2OCCN2CCCCCC2)nc1N` (stereo not drawn) [Example 2-86], the IC50 is 2000 to 10000 nM.

As for `CC(C)COc1cccc(O)c1-c1cc(C2CCNCC2)c(C#N)c(N)n1` [Example 2-71], the IC50 is below 500 nM.

As for `N#Cc1c(C2CCCNC2)cc(-c2c(O)cccc2OCc2cccc([N+](=O)[O-])c2)nc1N` (stereo not drawn) [Example 2-13], the IC50 was below 500 nM.

`N#Cc1c([C@@H](N)Cc2ccccc2)cc(-c2ccccc2O)nc1N` [Example 1-25]: the IC50 was below 500 nM.

As for `CC(N)Cc1cc(-c2ccccc2O)nc(N)c1C#N` (stereo not drawn) [Example 1-36], the IC50 is below 500 nM.

As for `CCOc1cccc(O)c1-c1cc(C2CCNCC2)c(C#N)c(N)n1` [Example 2-75], the IC50 is below 500 nM.

For the molecule `COc1ccc(C[C@H](N)c2cc(-c3ccccc3O)nc(N)c2C#N)cc1` [Example 1-26], the IC50 was below 500 nM.

Take `CCOC(=O)C1Cc2c(C3CCCNC3)cc(-c3ccccc3O)nc2NC1=O` (stereo not drawn) [Example 26-1, ethyl 7-(2-hydroxyphenyl)-2-oxo-5-(3-piperidinyl)-1,2,3,4-tetrahydro-1,8-naphthyridine-3-carboxylate]: the IC50 is below 500 nM.

For `N#Cc1c(C2CCNCC2)cc(-c2c(O)cccc2OCC2CCCO2)nc1N` (stereo not drawn) [Example 2-82], the IC50 was below 500 nM.

Regarding `N#Cc1c([C@H](N)Cc2ccccc2)cc(-c2ccccc2O)nc1N` [Example 1-34], the IC50 is below 500 nM.

For the molecule `O=c1ccc2c(C3CCCNC3)cc(-c3c(O)cccc3OCC3CC3)nc2[nH]1` (stereo not drawn) [Example 25-4, 7-[2-(cyclopropylmethoxy)-6-hydroxyphenyl]-5-(3-piperidinyl)-1,8-naphthyridin-2(1H)-one hydrochloride], the IC50 was below 500 nM.

In the case of `CCCOc1cccc(O)c1-c1cc(C2CCNCC2)c(C#N)c(N)n1` [Example 2-67], the IC50 is below 500 nM.

Regarding `N#Cc1c(C2CCCNC2)cc(-c2c(O)cccc2OCc2cccc(C(F)(F)F)c2)nc1N` (stereo not drawn) [Example 2-09], the IC50 was below 500 nM.

In the case of `N#Cc1c(C2CCCNC2)cc(-c2c(O)cccc2OCc2ccc(Cl)cc2)nc1N` (stereo not drawn) [Example 2-19], the IC50 is below 500 nM.

For `N#Cc1cccc(COc2cccc(O)c2-c2cc(C3CCCNC3)c(C#N)c(N)n2)c1` (stereo not drawn) [Example 2-15], the IC50 was below 500 nM.

On to `CCCCCCCOc1cccc(O)c1-c1cc(C2CCNCC2)c(C#N)c(N)n1` [Example 2-73], for which the IC50 is below 500 nM.

As to `CCCN(CCC)C1CCCC(c2cc(-c3ccccc3O)nc(N)c2C#N)C1` (stereo not drawn) [Example 1-43], the 50% inhibitory concentration (IC50) was below 500 nM.

`O=C1CCc2c(C3CCCNC3)cc(-c3ccccc3O)nc2N1` (stereo not drawn) [Example 27-1, 7-(2-hydroxyphenyl)-5-(3-piperidinyl)-3,4-dihydro-1,8-naphthyridin-2(1H)-one hydrochloride]: the IC50 was below 500 nM.

Consider `N#Cc1c(C2CNCCN2)cc(-c2ccccc2O)nc1N` (stereo not drawn) [Example 1-15], for which the IC50 was in the range of 500 to 2000 nM.

Take `N#Cc1c(C2CCNCC2)cc(-c2ccccc2O)nc1N` [Example 1-13]: the IC50 was below 500 nM.

For the molecule `N#Cc1c(C2CCC(N)CC2)cc(-c2ccccc2O)nc1N` (stereo not drawn) [Example 1-22], the IC50 was below 500 nM.

As for `N#Cc1c([C@@H](N)Cc2ccc(F)cc2)cc(-c2ccccc2O)nc1N` [Example 1-30], the IC50 is below 500 nM.

In the case of `N#Cc1c(C2CCCNC2)cc(-c2c(O)cccc2OCC2CCCCO2)nc1N` (stereo not drawn) [Example 2-79], the IC50 is below 500 nM.

Take `N#Cc1c(C2CCCCN2)cc(-c2ccccc2O)nc1N` (stereo not drawn) [Example 1-14]: the IC50 was 500 to 2000 nM.

Take `N#Cc1c(C2CCCNC2)cc(-c2c(O)cccc2OCc2ccc(C(F)(F)F)cc2)nc1N` (stereo not drawn) [Example 2-10]: the IC50 was below 500 nM.

`N#Cc1c(C2CCCNC2)cc(-c2ccc(O)cc2O)nc1N` (stereo not drawn) [Example 1-18]: the IC50 fell in the range of 500 to 2000 nM.

(Values after patent US6984649B1, “Pyridine derivatives” (Bayer Aktiengesellschaft, priority 2000, dated 2006).)
